pIC50: −log10 of the molar value.

One assay has as its system male Balb/c mice. The assay is described as follows: Fasting-induced muscle atrophy. The class given is in vivo. The following applies: fasted mice, 10 mg/kg oral, compared to vehicle-treated fasted mice. How it is done:
Wild type eight-weeks-old male Balb/c mice obtained from the vivarium Fundación Ciencia & Vida Chile (Santiago, Chile) are used. Mice are housed in independent plastic cages in a room maintained at 25° C. with a 12-h:12-h light:dark cycle.
Twenty-four hours before and during the 2 days of fasted procedures, animals receive oral administration via feeding tubes (15 gauge) of vehicle (50% Polyethylene glycol 400 (Sigma-Aldrich P3265) in distilled water or 10 mg/kg of test compound formulated in vehicle solution.
After 2 days of fasting the animals are sacrificed and muscles are removed from both hindlimbs. Mice with feed and water ad libitum are used as control. […]
Upon collection, muscles are immediately frozen in liquid nitrogen and then stored at −80° C. […] Protein concentration in supernatants is determined using BCA Protein Assay Kit (Pierce). […]
Puromycin (12D10) (Merck Millipore), MuRF-1 (Santa Cruz Biotechnology) and 3-actin (Sigma-Aldrich) antibodies are used as primary antibodies. […] Quantification of protein bands is done by densitometry using ImageJ software.
Expression of the muscle atrophy marker MuRF-1 in quadriceps from fed or fasted mice treated with vehicle or compound 11 is shown in FIG. 1D. The levels were normalized to β-actin expression and fold change was calculated as the level relative to MuRF-1 levels from control mice (Fed) which correspond to 1.

The test system of assay [1] is Chinese hamster ovary (CHO) cells. The experiment in a line: Protein synthesis assay (puromycin incorporation, western blot). The settings on record: 2 hours, media alone = 100%; for activity at 1 µM: Cricetulus griseus, unstressed CHO cells (without Tg), 1 μM test compound, read-out: % Protein synthesis relative to untreated (1 μM test compound); for % Recovery of protein synthesis (1 μM test compound): stressed CHO cells, 300 nM Tg plus 1 μM test compound, Tg alone = 0%. Type of assay: cell-based. In a few lines: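 CHO cells treated 2 h with 1 μM compound alone, or with 300 nM thapsigargin plus 1 μM compound, then pulsed 30 min with 10 μg/ml puromycin. Puromycin incorporation read by anti-puromycin western blot with densitometry. Unstressed values normalized to media alone (100%); stressed recovery normalized to media alone (100%) and Tg alone (0%).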

Assay [2] concerns ATF4 expression, HEK293T cells carrying the ATF4 luciferase reporter. The experiment in a line: ATF4 expression inhibition assay (ATF4 luciferase reporter). Type of assay: cell-based. The following applies: Homo sapiens, HEK-293T, 100 nM thapsigargin, 3 hours. In a few lines:
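Stable HEK293T line expressing firefly luciferase behind the human full-length ATF4 5′UTR; cells stressed with 100 nM thapsigargin alongside compound (1 nM–10 μM) for 3 h at 37 °C. Luminescence normalized to Tg alone (0% inhibition) and untreated cells (100% inhibition) to give % ATF4 inhibition.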
Background: Reporter assays use an easily measured gene product as a stand-in for the process of interest.

The pIC50 is the negative decadic logarithm of the IC50, by convention in mol/L. The low end stands for a high IC50, the high end for a low IC50. With `O=C(COc1ccc(Cl)c(F)c1)N[C@H]1CC[C@H](CNC(=O)c2cc3cc(Cl)ccc3o2)CC1` [Compound 11, trans-5-chloro-N-((4-(2-(4-chloro-3-fluorophenoxy)acetamido)cyclohexyl)methyl)benzofuran-2-carboxamide], the “Expression of the muscle atrophy marker MuRF-1 in quadriceps” value in the assay with male Balb/c mice is “reduction of MuRF-1 expression”. For the same compound, in assay [1], the activity at 1 µM amounted to 187% and the “% Recovery of protein synthesis (1 μM test compound)” value (shortened to “% Recovery of protein synthesis”) was 298.9%. In addition, the negative logarithm of the IC50 (pIC50) in assay [2] was 9.09.

For `CN1C[C@@H](C(=O)N[C@H]2CC[C@H](NC(=O)COc3ccc(Cl)cc3)CC2)Oc2ccc(Cl)cc21` [Compound 86, trans-(S)-6-chloro-N-(4-(2-(4-chlorophenoxy)acetamido)cyclohexyl)-4-methyl-3,4-dihydro-2H-benzo[b][1,4]oxazine-2-carboxamide], in assay [1], the activity at 1 µM worked out at 125% and the “% Recovery of protein synthesis” value amounted to 108.1%. This compound gave a pIC50 in assay [2] of 7.91.

For `O=C(COc1ccc(Cl)c(F)c1)N[C@H]1CC[C@H](CNC(=O)c2ccc(Cl)cc2)CC1` [Compound 17, trans-4-chloro-N-((4-(2-(4-chloro-3-fluorophenoxy)acetamido)cyclohexyl)methyl)benzamide], in assay [1], the activity at 1 µM was 96.5% and the “% Recovery of protein synthesis” value amounted to 49.5%. This compound also gave a pIC50 in assay [2] of 8.63.

As for `O=C(N[C@H]1CC[C@H](CNC(=O)c2cc3cc(Cl)ccc3o2)CC1)c1ccc2cc(Cl)ccc2n1` [Compound 25, trans-6-chloro-N-(4-((5-chlorobenzofuran-2-carboxamido)methyl)cyclohexyl)quinoline-2-carboxamide], in assay [1], the activity at 1 µM was found to be 266% and the “% Recovery of protein synthesis” value turned out to be 223.3%. Also, the negative logarithm of the IC50 (pIC50) in assay [2] was 8.81.

The values are drawn from US20210317102A1, “INHIBITORS OF INTEGRATED STRESS RESPONSE PATHWAY” (Praxis Biotech LLC, priority 2019, published 2021).
